Like-named read-outs stand apart in the source and are kept apart here.
What was measured:
Format in all cases: cell-based
HOP-92 = assay: in vitro test at 1.0×10^−5 M, Non-small cell lung cancer cell; settings: 1.0×10^−5 molal concentration (M)
HCC-2998 = assay: in vitro test at 1.0×10^−5 M, Colorectal cancer cell; settings: 1.0×10^−5 molal concentration (M)
MCF7 = assay: in vitro test at 1.0×10^−5 M, Breast cancer cell; settings: 1.0×10^−5 molal concentration (M)
MDA-MB-435 = assay: in vitro test at 1.0×10^−5 M, Breast cancer cell; settings: 1.0×10^−5 molal concentration (M)
MDA-MB-468 = assay: in vitro test at 1.0×10^−5 M, Breast cancer cell; settings: 1.0×10^−5 molal concentration (M)
T-47D = assay: in vitro test at 1.0×10^−5 M, Breast cancer cell; settings: 1.0×10^−5 molal concentration (M)
IGROV1 = assay: in vitro test at 1.0×10^−5 M, Ovary cancer cell; settings: 1.0×10^−5 molal concentration (M)
OVCAR-4 = assay: in vitro test at 1.0×10^−5 M, Ovary cancer cell; settings: 1.0×10^−5 molal concentration (M)
MOLT-4 = assay: in vitro test at 1.0×10^−5 M, Blood cancer cell; settings: 1.0×10^−5 molal concentration (M)
ACHN = assay: in vitro test at 1.0×10^−5 M, Kidney cancer cell; settings: 1.0×10^−5 molal concentration (M)
SN12C = assay: in vitro test at 1.0×10^−5 M, Kidney cancer cell; settings: 1.0×10^−5 molal concentration (M)
UO-31 = assay: in vitro test at 1.0×10^−5 M, Kidney cancer cell; settings: 1.0×10^−5 molal concentration (M)
LOX IMV1 = assay: in vitro test at 1.0×10^−5 M, Skin cancer cell; settings: 1.0×10^−5 molal concentration (M)
MALME-3M = assay: in vitro test at 1.0×10^−5 M, Skin cancer cell; settings: 1.0×10^−5 molal concentration (M)
SK-MEL-2 = assay: in vitro test at 1.0×10^−5 M, Skin cancer cell; settings: 1.0×10^−5 molal concentration (M)
UACC-257 = assay: in vitro test at 1.0×10^−5 M, Skin cancer cell; settings: 1.0×10^−5 molal concentration (M)
UACC-62 = assay: in vitro test at 1.0×10^−5 M, Skin cancer cell; settings: 1.0×10^−5 molal concentration (M)
SF-539 = assay: in vitro test at 1.0×10^−5 M, CNS cancer cell
U251 = assay: in vitro test at 1.0×10^−5 M, CNS cancer cell
[1] = system: different cancer cell lines; assay: in vitro test at 1.0×10^−5 M, summary over the cell lines; design: unit not given here; settings: 1.0×10^−5 molal concentration (M)
[2] = 1.0×10^−5 molal concentration (M)

Compound | inhibition effect on cancer cell line (Table 2 value) (HOP-92) | inhibition effect on cancer cell line (Table 2 value) (HCC-2998) | inhibition effect on cancer cell line (Table 2 value) (MCF7) | inhibition effect on cancer cell line (Table 2 value) (MDA-MB-435) | inhibition effect on cancer cell line (Table 2 value) (MDA-MB-468) | inhibition effect on cancer cell line (Table 2 value) (T-47D) | inhibition effect on cancer cell line (Table 2 value) (IGROV1) | inhibition effect on cancer cell line (Table 2 value) (OVCAR-4) | inhibition effect on cancer cell line (Table 2 value) (MOLT-4) | inhibition effect on cancer cell line (Table 2 value) (ACHN) | inhibition effect on cancer cell line (Table 2 value) (SN12C) | inhibition effect on cancer cell line (Table 2 value) (UO-31) | inhibition effect on cancer cell line (Table 2 value) (LOX IMV1) | inhibition effect on cancer cell line (Table 2 value) (MALME-3M) | inhibition effect on cancer cell line (Table 2 value) (SK-MEL-2) | inhibition effect on cancer cell line (Table 2 value) (UACC-257) | inhibition effect on cancer cell line (Table 2 value) (UACC-62) | Mean [1] | other results
CC1(C)Nc2ccc3c(c2N1)C(=O)c1ccccc1C3=O [No. 20, 2,2-Dimethyl-2,3-dihydro-1H-anthra[1,2-d]imidazole-6,11-dione] | 5.10 | 136.96 | 83.58 | 124.56 | 77.25 | 82.96 | −2.80 | 80.14 | 116.41 | 50.17 | 91.98 | 30.65 | 61.88 | 155.47 | 8.04 | 118.22 | 67.58 | 80.41 | inhibition effect on cancer cell line (Table 2 value) (SF-539): 93.56; inhibition effect on cancer cell line (Table 2 value) (U251): 87.84
O=C1c2ccccc2C(=O)c2c1ccc1[nH]c(=O)c(=O)[nH]c21 [No. 26, Naphtho[2,3-f]quinoxaline-2,3,7,12 (1H,4H)-tetraone] | −15.08 | 77.59 | 85.17 | 144.42 | 38.35 | 87.10 | 13.36 | 103.31 | 121.52 | 81.33 | 94.07 | 61.43 | 96.94 | 149.83 | 21.96 | 118.21 | 95.25 | 100.83 | inhibition effect on cancer cell line (Table 2 value) (SF-539; [2]): 101.16; inhibition effect on cancer cell line (Table 2 value) (U251; [2]): 95.92
